Source: paper PMC11748689, “Pharmacological and structural understanding of the Trypanosoma cruzi proteasome provides key insights for developing site-specific inhibitors” (The Journal of Biological Chemistry, 2024)
pIC50: −log10 of the molar value.

Tests used:
[1] = target: native T. cruzi proteasome (caspase-like activity, β1) (Trypanosoma cruzi, UniProt V5BHX1); assay: Caspase-like activity assay (Proteasome-Glo), native T. cruzi proteasome; type: biochemical; conditions: mean ± SD, N = 3; read-out: pIC50, Caspase Assay, Native (converted)
Procedure: (§1) Chymotrypsin-, trypsin-, and caspase-like activity assays were performed using a commercially available Proteasome-Glo 3-substrate system assay kit (catalog number G8532) (Promega Corporation) according to the manufacturers protocols and as previously described ([24]).
(§2) Prior to running assays, Proteasome-Glo buffer was used to reconstitute the luciferin detection reagent (containing a recombinant thermostable luciferase enzyme). The resuspended luciferin detection reagent was then mixed with Proteasome-Glo chymotrypsin-, trypsin- or caspase-like substrates (either 40 μM suc-Leu-Leu-Val-Tyr-aminoluciferin, 30 μM Z-Leu-Arg-Arg-aminoluciferin (Z is benzyloxycarbonyl) or 40 μM Z-Nle-Pro-Nle-Asp-aminoluciferin respectively (these concentrations represent 2x final assay concentrations)). These substrate mixtures were allowed to incubate at room temperature for 60 min prior to use to allow the removal of any contaminating free aminoluciferin.
(§3) When proteasome inhibitors were to be screened in the chymotrypsin, trypsin, and caspase assays, test compounds were dispensed into assay wells using an ECHO 550 acoustic dispenser (Labcyte) (final DMSO concentration 1%). Compounds were tested in either a 10-point concentration series (30 μM top final assay concentration, 1 in 3 dilution series) or a 12-point concentration series (30 μM top final assay concentration, 1 in 2.5 dilution series).
(§4) Proteasome assays were then performed as described above using Promega Proteasome-Glo 3-substrate system assay kit. […] Diluted proteasome (4 μl) was added to assay plates using an electronic multichannel pipette (Integra Biosciences Ltd) and the proteasome incubated with compound for 60 min at room temperature.
(§5) Following the 60 min incubation of proteasome and compounds, assays were initiated with the addition of 4 μl of a substrate mix (containing substrate and the luciferin detection reagent) using an electronic multichannel pipette. Final assay concentrations of substrates used were either 20 μM Suc-Leu-Leu-Val-Tyr-aminoluciferin, 15 μM Z-Leu-Arg-Arg-aminoluciferin, or 20 μM Z-Nle-Pro-Nle-Asp-aminoluciferin for chymotrypsin-, trypsin-, or caspase-like activity, respectively. Following a further 60 min assay incubation, luminescence was read using an EnVision 2102 Multilabel Reader (PerkinElmer, Inc) with 0.2 s per well reading time.
(§6) All data processing was performed using Microsoft Excel for Microsoft 365 software.
(§7) Nonlinear dose-response curve fitting was carried out using the Microsoft Excel add-in, XLfit (IDBS). Percentage inhibition data were either fitted to a standard 4-parameter logistic fit model (XLfit model 205; Equation 2) or a biphasic model (either XLfit model 300; Equation 3 or a custom biphasic model; Equation 4 (used in cases where the top and/or bottom parameters deviated from 100%/0% inhibition)).(2) y=A+(B−A)/1+(C/x)^D Where A = % inhibition at bottom, B = % inhibition at top, C = IC50, D = slope, x = inhibitor concentration and y = % inhibition.(3) y=(A/(1+10^(C−log(x))∗B))+((100−A)/(1+10^(D−log(x))∗B)) With A = % inhibition at midplateau, B = slope, C = log(IC50^A), D = log(IC50^B)).
(§8) All IC50 data generated were converted to pIC50 using Equation 5.

[2] = target: recombinant β4^R mutant T. cruzi proteasome (caspase-like activity) (Trypanosoma cruzi, UniProt V5BHX1); assay: Caspase-like activity assay (Proteasome-Glo), recombinant β4^R mutant T. cruzi proteasome; type: biochemical
Procedure: Point mutations were created in individual subunits using overlapping PCR from the original templates using Polh and Tn7L primers outside the genes and suitable internal primers to introduce selected mutations. For Δβ1Δβ2, β1 Thr 55, and β2 Thr 67 were both mutated to Ala, the β4^R mutant was produced by mutating Phe 24 and Ile 29 to Leu and Met respectively in β4 subunit.
as §1, §2
Proteasome assays were carried out using 384-well, white, low-volume plates (catalog number 784904) (Greiner Bio-One) at room temperature (∼23 °C) in 8 μl reaction volumes. When activity checks were to be run in the presence or absence of a fixed concentration of proteasome inhibitor, 80 nL of the inhibitor (at a concentration 100x the required final assay concentration), or 80 nL dimethylsulfoxide (DMSO), were dispensed into assay plates using an Echo 550 acoustic dispenser (Labcyte).
A 1 in 2 dilution series of the various T. cruzi proteasome samples (native, recombinant WT, β4^R mutant, and Δβ1Δβ2 mutant) were produced in assay buffer (50 mM Tris–HCl, pH 7.5, 10 mM sucrose, 5 mM MgCl2, 1 mM DTT, 2 mM ATP, 150 mM NaCl, 1 mM EDTA, and 0.05 mg/ml bovine serum albumin). Subsequently, 4 μl of the various concentrations of diluted proteasome were added to assay plates using an electronic multichannel pipette (Integra Biosciences Ltd). When kinetic read activity checks were performed (Fig. 2), proteasome final assay concentrations used were 115 μg/ml, 115 μg/ml, and 230 μg/ml native proteasome (in the chymotrypsin, trypsin, and caspase assays, respectively), and 4.1 μg/ml, 3.4 μg/ml, or 1.4 μg/ml recombinant WT proteasome (in the chymotrypsin, trypsin, and caspase assays, respectively). When activity checks were to be run in the presence or absence of a proteasome inhibitor plates containing inhibitor or DMSO control were incubated with the relevant proteasome sample for 60 min at room temperature (this step was not included in activity check experiments where compounds were not used).
Following the 60 min incubation of proteasome and compound (if required), assays were initiated with the addition of 4 μl of substrate mix (containing substrate and the luciferin detection reagent) using an electronic multichannel pipette. Final assay concentrations of substrates used were either 20 μM Suc-Leu-Leu-Val-Tyr-aminoluciferin, 15 μM Z-Leu-Arg-Arg-aminoluciferin, or 20 μM Z-Nle-Pro-Nle-Asp-aminoluciferin for chymotrypsin-, trypsin- or caspase-like activity respectively.
Luminescence was read either kinetically or as an endpoint read using an EnVision 2102 Multilabel Reader (PerkinElmer, Inc) with 0.2 s per well reading time. When kinetic assays were run, luminescence was read every 5 min for 90 min. Endpoint assays were run for 60 min before luminescence was read. All data processing and linear fit analyses were performed using Microsoft Excel for Microsoft 365 software (Redmond, Washington; https://www.microsoft.com/).

[3] = test system: intracellular T. cruzi Silvio X10/7 A1 amastigotes; assay: Intracellular T. cruzi assay; type: cell-based; conditions: Trypanosoma cruzi; 96 h compound treatment, Vero host cells; given as [mean pEC50, SD, N]; read-out: Mean pEC50 against intracellular T. cruzi parasites (converted)
Procedure: Potency against intracellular T. cruzi Silvio X10/7 A1 amastigotes was determined as described previously ([53]), with a sole modification that the compound treatment duration was 96 h instead of 72 h. Vero host cells were obtained from The European Collection of Authenticated Cell Cultures (cat. number 84113001) and tested for mycoplasma (negative). T. cruzi Silvio X10/7 A1 was obtained from Prof. Alan Fairlamb, and discrete typing unit confirmed by genotyping ([53]).

[4] = target: native T. cruzi proteasome (trypsin-like activity, β2) (Trypanosoma cruzi, UniProt V5BCU3); assay: Trypsin-like activity assay (Proteasome-Glo), native T. cruzi proteasome; type: biochemical; conditions: mean ± SD, N = 3; read-out: pIC50, Trypsin Assay, Native (converted)
Procedure: as §1, §2, §3, §4, §5, §6, §7, §8

SMILES | IC50 [1] | pIC50 [2] | inhibition of caspase activity, β4^R mutant, fixed concentration ([2]; 1 μM compound (Fig. S4)) | EC50 [3] | IC50 [4]
O=C(Nc1ccc(F)c(-c2cn3nc(-c4ccccc4)cnc3n2)c1)N1CCCC1 [DDD01012248] | > 30.2 µM | < 4.52 | did not inhibit | 0.02 µM | > 30.2 µM
O=C(Nc1ccc(F)c(C(=O)NC2CC2)c1)c1ccc(COc2ccccc2)o1 [DDD02091966, N-(3-(cyclopropylcarbamoyl)-4-fluorophenyl)-5-(phenoxymethyl)furan-2-carboxamide] | > 30.2 µM | < 4.52 | – | 0.251 µM | > 30.2 µM
